Assay results as given in patent US8709811B2, “Materials and methods for synthesis of a flavor and aroma volatile in plants” (University of Florida Research Foundation, Inc., priority 2003, dated 2014).
Entries after “also recorded” stand apart in the source; their conditions may differ.

How the values were obtained:
[1] = target: LePEDH (tomato 2-phenylethanol dehydrogenase, full-length cLET2M9) (Solanum lycopersicum, UniProt A6N6K7); test: Alcohol dehydrogenase activity of E. coli expressed His-tagged LePEDH on phenylacetaldehyde and related substrates (Km); type: biochemical; conditions: His tag
Chain of LePEDH (tomato 2-phenylethanol dehydrogenase, full-length cLET2M9) (A6N6K7 entry or part of it): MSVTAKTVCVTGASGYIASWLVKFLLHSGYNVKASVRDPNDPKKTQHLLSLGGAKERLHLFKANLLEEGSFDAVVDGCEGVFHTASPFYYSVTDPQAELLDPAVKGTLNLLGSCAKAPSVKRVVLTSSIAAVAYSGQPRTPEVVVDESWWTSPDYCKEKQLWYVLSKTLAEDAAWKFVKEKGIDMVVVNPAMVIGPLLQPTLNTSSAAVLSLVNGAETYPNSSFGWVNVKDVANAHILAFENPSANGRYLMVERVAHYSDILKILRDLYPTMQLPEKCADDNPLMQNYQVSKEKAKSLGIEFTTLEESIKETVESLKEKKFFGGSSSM
Procedure: The 2-phenylethanol dehydrogenase coding region of the full-length cLET2M9 was cloned in vector pDEST17 with a His tag and transformed into E. coli BL21-AI cells for inducible expression. Alcohol dehydrogenase activities on phenylacetaldehyde and several related substrates were determined.

[2] = concentration X humans' ability to detect; cited from earlier work
[3] = trained expert panel; cited from earlier work
[4] = tested on: 2-phenylethanol dehydrogenase (full-length cLET2M9); type: biochemical, tomato; conditions: GST-tagged enzyme, decrease in OD340
Procedure: A full-length 2-phenylethanol dehydrogenase cDNA was cloned by 5′ RACE from tomato fruit cDNA using primer 5′-[…]-3′ (SEQ ID NO: 3). Following sequence analysis the full-length cDNA was obtained by PCR. The coding region was cloned into vector pDEST15 containing a GST tag (Invitrogen) by recombination, and transformed into E. coli strain BL21-SI (Invitrogen) for inducible protein expression. Enzyme activity of crude E. coli extracts was determined by the method of Larroy et al. (2002) using phenylacetaldehyde, cinnamaldehyde or vanillin as a substrate.
The 2-phenylethanol dehydrogenase coding region of the full-length cLET2M9 and the related cLEG71F12 were cloned in vector pDEST15 with a GST tag and transformed into E. coli BL21-SI cells for inducible expression. The production of recombinant protein in E. coli was determined by Western blotting with an anti-GST antibody.

| SMILES | Alcohol dehydrogenase activity level as substrate [1] | Log odor units [2] | Odor Characteristics [3] | Alcohol dehydrogenase activity level as substrate [4] |
| --- | --- | --- | --- | --- |
| O=Cc1ccccc1 [Benzaldehyde] | Lower activity levels |  |  |  |
| COC(=O)c1ccccc1O [Methyl salicylate] |  | 0.08 | wintergreen |  |
| CCCCCC=O [Hexanal] |  | 2.8 | green/grassy |  |
| COc1cc(C=O)ccc1O [vanillin] |  |  |  | negligible activity |
| C/C=C/C(=O)C1=C(C)C=CCC1(C)C [β-Damascenone] |  | 2.7 | Fruity |  |
| CC(C)Cc1nccs1 [2-Isobutylthiazole] |  | 1.0 | Tomato vine |  |
| CC(C)CCO [3-Methylbutanol] |  | 0.2 | earthy, musty |  |
| CCCC/C=C/C=O [trans-2-Heptenal] |  | 0.7 | Green |  |
| C=CC(=O)CC [1-Penten-3-one] |  | 2.7 | fruity; also recorded: floral/green |  |
| O=CCc1ccccc1 [Phenylacetaldehyde] | highest level of activity | 0.6 | floral/alcohol | highest level of activity; also recorded: Highest activity levels |
| OCCc1ccccc1 [2-Phenylethanol] |  | 0.3 | Nutty |  |
| CC(=O)/C=C/C1=C(C)CCCC1(C)C [β-ionone] |  | 2.8 | fruity/floral |  |
| O=Cc1ccccc1O [salicylaldehyde] | no detectable activity |  |  |  |
| O=C/C=C/c1ccccc1 [Cinnamaldehyde] | Lower activity levels |  |  | Lower activity levels |
| CC(=O)CCC=C(C)C [6-Methyl-5-hepten-2-one] |  | 0.4 | fruity, floral |  |
| CC/C=C\CC=O [cis-3-Hexenal] |  | 3.7 | Tomato/green |  |
| O=[N+]([O-])CCc1ccccc1 [1-nitro-2-Phenylethane] |  | 0.9 | musty, earthy |  |
| CCC/C=C/C=O [trans-2-Hexenal] |  | 1.2 | Green |  |
